The values that follow come from patent publication US8912137B2, “Method for increasing natriuresis or diuresis by isoforms of brain natriuretic peptide” (Mayo Foundation for Medical Education and Research, priority 2003, dated 2014).

Data set [1] concerns carotid arteries from New Zealand White Rabbits. Kind of data set: Vasoactivity in organ chamber, phenylephrine pre-contracted carotid artery rings. The note with it: rabbit carotid rings. The method, then: Vasoactivity was assessed in an organ chamber using carotid arteries from New Zealand White Rabbits. Following euthanization, carotids were immediately immersed in cold Krebs solution. Arterial rings ˜4 mm in length (n=6) were dissected, connected to isometric force displacement transducers, and suspended in organ chambers filled with 25 mL of Krebs (94% O2, 6% CO2). Rings were equilibrated for 1 hour at 37° C. and then incrementally stretched to 3 g. Viability and maximum contraction was determined with 60 mM KCl. After 3 washes with Krebs solution and further equilibration, arteries were pre-contracted with phenylephrine in a titrated fashion to achieve ˜80% stable maximal contraction. To study vasoactivity, BNP3 (final cone 10^−10 to 10^−7 M) or vehicle was added to the organ bath in a cumulative manner. Following three further washes and equilibration, the arteries were re-contracted and viability was confirmed by assessment of endothelium independent responses with incremental doses of sodium nitroprusside (10^−9 to 10^−5 M), an exogenous NO donor.

The next data set has as its system normal dogs. Kind of data set: Intrarenal arterial infusion in normal dog. As to conditions: intrarenal arterial infusion 0.03 ng/kg/min. The data set is classed as in vivo. How it is done:
To determine the physiological effects of BNP-3, the synthesized peptide was delivered via a direct intrarenal arterial infusion (0.03 ng/kg/min) in normal dogs. Physiologic assessment was performed following a 15 minute run-in period. […] Both of these increases normalized during a washout period.

The test system of data set [2] is Human umbilical vascular endothelial cells (HUVEC). Kind of data set: Stimulation of intracellular cGMP production in HUVEC (BIOTRACK cGMP enzyme immunoassay). In kind it is cell-based. As to conditions: 30 minutes incubation, 0.5 mM IBXM. The method, then:
Human umbilical vascular endothelial cells (HUVEC) were cultured in 96-well plates using endothelial cell medium (EGM™-2) supplemented with the components provided by the EGM™-2 BulletKit (CC-3162) (Clonetics, East Rutherford, N.J.). After cells reached about 80% confluency, the plates were washed with phosphate-buffered saline ([…], SEQ ID NO:35) dissolved in EBM-2 that contained supplements and 0.5 mM IBXM. After incubation, the culture medium was aspirated, and the cells were assayed for intracellular cGMP production using the BIOTRACK cGMP enzyme immunoassay kit (Amersham Pharmacia Biotech). The amount of cGMP was calculated according the standard curve that was generated from parallel reactions within the same experiment.

The conditions of data set [3]: cited from earlier work.

For “SPKMVQGSGCFGRKMDRISSSSGLGCKVVQKENQTFPPGFL (listed as Homo sapiens) [BNP3]”, the “concentration at which vasorelaxation began” value in data set [1] (cumulative addition 10^−10 to 10^−7 M) is recorded as 10^−9 M. In addition, the complete relaxation in data set [1] (dose 10^−7M) is reported as about 95%; in data set [1] (dose 10^−8M) it was about 60%. Besides, the increased urinary flow with normal dogs is 6-8 fold. The “plasma cGMP” value in the data set on normal dogs is on record as “elevation of plasma cGMP”. In the data set with normal dogs, the “urinary excretion of sodium” value is “increased urinary excretion of sodium”. Further, the values for the cGMP in data set [2] (BNP3 10^−8 M), in data set [2] (BNP3 10^−9 M) and in data set [2] (BNP3 10^−10 M) were 26 fmol/well, 18 fmol/well and 1 fmol/well, respectively.
In the case of “recombinant BNP: recombinant brain natriuretic peptide, 32 amino acid peptide with a ring structure (SEQ ID NO:16)”, in data set [3] (in vivo), the “effect on heart rate” value is on record as “no effect” and the pro-arrhythmic effect entry was “not pro-arrhythmic”. In addition, in data set [3] (intravenous therapy), the cardiac index entry is recorded as “increases”, the “pulmonary capillary wedge pressure” value is listed as “significantly decreases” and the systemic vascular resistance result is “significantly decreases”.
